Values joined by “and” are separate entries in the source; they are usually repeats but may differ in a detail not shown here. Equal values may be shown once. Marks after values point to notes of the source that are not given here.
Experiments:
[1] = Co-factor experiment: microsome suspension with and without NADPH; format: in vitro ADME, human; conditions: for Co-factor experiment: degradation with and without addition of NADPH compared
Protocol: Therefore, additional experiments comparing stability with and without the addition of NADPH cofactor and a very short incubation period were performed (Tables S4 and S5). […] Due to the rapid observed degradation in microsomes, we decided to investigate the stability of five compounds in human plasma, aiming for a broad range of stabilities (Table 2, Table S6). It should be noted that esterase-labile compounds are notoriously difficult to study in microsomal stability studies.[36]
Table S3 Evaluation of metabolic stability in human microsomes
No. Metabolic stability Comment
4k <10/<10 Low retention in chromatography
8 <10/<10 Low retention in chromatography.
Table S4 Results from the modified microsome assay where degradation with and without the addition of NADPH was compared […]
4d Very low peak area for the first time point,
4e Very low peak area for the first time point,
4f Very low peak area for the first time point,
5 Very low peak area for the first time point,
8 No degradation without co -factor […]
metabolism by the microsomes (consisting mainly of cytochrome P450 enzymes) or if it was due to other factors, the compounds (with the exception of 4k) were incubated in the microsome suspension both with and without the addition of NADPH. Samples […]
(§1) were taken at three timepoints, and the degradation was compared to determine if it was dependent on NADPH. Compound 4k […]
(§2) without the addition of NADPH. […]
(§3) microsomes that need to be activated by a co -factor.
(§4) Table S5 Percent of peak area found in microsome suspension 15 seconds after the addition of NADPH in comparison with the same amount dissolved in H2O/EtOH
(§5) No. Area at 0.25 min. in Area in solution % found in microsomes/NADPH (125 nM) microsome
(§6) Comparison with compounds in solution. A comparison was made between the peak area of the compounds in solution with that obtained in the microsome suspension directly after the addition of NADPH (about 0.25 minutes) (Table S5). Before the addition of NADPH, the compounds are equilibrated in the microsome suspension for approximately five minutes. All compounds were prepared in solution by diluting a portion of the DMSO solutions with H2O/EtOH (75:25) to 125 nM (the final concentration of compounds for analysis in the microsome assay).
(§7) For the compounds where no results from the microsome assay could be reported due to low peak area (4d, 4e, 4f & 5), less than one percent of the expected peak area as compared with the area in solution was detected. […]
(§8) degrade rapidly before the addition of the co-factor after five minutes in incubation. For compounds 4g, 4h, 4i & 4j, which were […]
(§9) higher relative peak areas were found. […]
(§10) without NADPH was only found at 15% of the area seen in solution in the microsome suspension.

[2] = Peak area in microsome suspension compared with compounds in solution; format: in vitro ADME, human; conditions: peak area 15 seconds after addition of NADPH versus same amount (125 nM) in H2O/EtOH
Protocol: as §1, §2, §3, §4, §5, §6, §7, §8, §9, §10

[3] = Stability in simulated stomach acid (0.10 M HCl); conditions: 0.10 M HCl (simulated stomach acid)
[4] = Chemical stability in 1.0 M NaHCO3 and 1.0 M HCl
[5] = Solubility, screen method, phosphate buffer pH 7.4, 1% DMSO; format: physicochemical; conditions: phosphate buffer with 1% DMSO; 100 mM phosphate buffer pH 7.4, 1% DMSO; assay range 0.1 to 100 μM
[6] = Metabolic stability in human microsomes; format: in vitro ADME; conditions: for Metabolic stability in human microsomes: 37 °C, 0.5 mg/mL protein, 1 μM compound, 1 mM NADPH; for Comment on microsome assay: Table S3
[7] = cited from earlier work

## CCCC(=O)Oc1cccc2[nH]cc(CCN(C)C)c12.O=C(O)/C=C/C(=O)O [Compound 4b]
[1]
  Co-factor experiment: No degradation without co-factor
[2]
  % found in microsome suspension: 0.3%
[3]
  half-life at 5 mM: > 167 h
[4]; 1.0 M HCl
  half-life at 24 h, 5 mM: 15 h
[4]; 1.0 M NaHCO3
  half-life at 24 h, 5 mM: 65 h
[5]
  solubility: 87 µM
[6]
  Metabolic stability in human microsomes: >200^a μL/min/mg protein and >200 μL/min/mg protein
  Comment on microsome assay: Rapid degradation

## CN(C)CCc1c[nH]c2cccc(O)c12 [psilocin freebase, 4-hydroxy-N,N-dimethyltryptamine]
[7]; 254 nm, in EtOH, after 1.75 h
  degradation of psilocin under UV radiation: 9%
[7]; NaOH solution (1 M), after 2 h, ref 46 (Barrow et al.)
  degradation of psilocin in NaOH solution: 60%
[7]; oxidative conditions
  degradation of psilocin in oxidative conditions: complete degradation after only two hours

## CN(C)CCc1c[nH]c2cccc(OS(=O)(=O)O)c12 [Compound 6]
[1]
  Co-factor experiment: No degradation without co-factor
[2]
  % found in microsome suspension: 15%
[3]
  half-life at 5 mM: > 167 h
[4]; 1.0 M HCl
  half-life at 5 mM: > 167 h
[4]; 1.0 M NaHCO3
  half-life at 5 mM: > 167 h
[5]
  solubility: > 90 µM
[6]
  Metabolic stability in human microsomes: >200 μL/min/mg protein
  Comment on microsome assay: Rapid degradation

## CCCCC(=O)Oc1cccc2[nH]cc(CCN(C)C)c12.O=C(O)/C=C/C(=O)O [Compound 4c]
[1]
  Co-factor experiment: No degradation without co-factor
[2]
  % found in microsome suspension: 0.2%
[3]
  half-life at 5 mM: > 167 h
[4]; 1.0 M HCl
  half-life at 24 h, 5 mM: 13.3 h
[4]; 1.0 M NaHCO3
  half-life at 24 h, 5 mM: 50 h
[5]
  solubility: 87 µM
[6]
  Metabolic stability in human microsomes: >200^a μL/min/mg protein and >200 μL/min/mg protein
  Comment on microsome assay: Rapid degradation

## CN(C)CCc1c[nH]c2cccc(OC(=O)c3ccccc3)c12.O=C(O)/C=C/C(=O)O [Compound 4h]
[1]
  Co-factor experiment: Degradation without co-factor
[1]; human, human microsome suspension, both with and without the addition of NADPH, read-out: intrinsic clearance
  microsomal CLint: > 200 µL/min/mg
[2]
  % found in microsome suspension: 44%
[3]
  half-life at 5 mM: > 167 h
[4]; 1.0 M HCl
  half-life at 5 mM: > 167 h
[4]; 1.0 M NaHCO3
  half-life at 24 h, 5 mM: 150 h
[5]
  solubility: > 90 µM
[6]
  Metabolic stability in human microsomes: >200^a μL/min/mg protein and >200 μL/min/mg protein
  Comment on microsome assay: Rapid degradation
